This assay addresses T1, mAChR M1 (Homo sapiens, UniProt P11229).
T1 construct: expressed in transfected cells; host or cells: CHO-K1
T1 sequence (P11229 1-460): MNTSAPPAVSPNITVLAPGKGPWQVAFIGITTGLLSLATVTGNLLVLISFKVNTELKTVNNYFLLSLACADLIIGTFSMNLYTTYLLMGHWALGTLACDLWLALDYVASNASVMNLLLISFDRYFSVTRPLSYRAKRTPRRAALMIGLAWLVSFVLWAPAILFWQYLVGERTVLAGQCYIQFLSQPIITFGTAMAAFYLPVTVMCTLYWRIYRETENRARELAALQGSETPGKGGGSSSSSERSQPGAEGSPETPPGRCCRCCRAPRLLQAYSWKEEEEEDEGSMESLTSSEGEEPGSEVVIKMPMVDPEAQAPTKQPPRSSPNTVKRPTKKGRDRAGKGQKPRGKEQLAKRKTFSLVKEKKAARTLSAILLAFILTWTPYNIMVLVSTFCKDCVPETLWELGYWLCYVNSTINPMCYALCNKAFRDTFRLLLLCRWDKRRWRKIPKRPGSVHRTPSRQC
Description: mAChR M1 cell-based functional assay (calcium mobilization, potentiation of EC20 acetylcholine response in CHO-K1 cells). From the text: Chinese hamster ovary (CHO-K1) cells stably expressing rat (r)M1 were purchased from the American Type Culture Collection and cultured according to their indicated protocol. CHO cells stably expressing human (h)M2, hM3, and hM5 were described previously (Levey, A. I., et al., J. Neurosci. 1991, 11, 3218-3226.); hM1 and hM4 cDNAs were purchased from Missouri S&T cDNA Resource; rM4 cDNA was provided by T. I. Bonner (National Institutes of Health, Bethesda, Md.). rM2 and rM3 were cloned from a rat brain cDNA library and sequence verified. hM1, rM2, rM3, hM4, and rM4 cDNAs were used to stably transfect CHO-K1 cells purchased from the American Type Culture Collection using Lipofectamine-2000. To make stable rM2, hM2, hM4, and rM4 cell lines for use in calcium mobilization assays, these cells also were stably transfected with a chimeric G-protein (Gqi5) (provided by B. R. Conklin, University of California, San Francisco) using Lipofectamine 2000. rM1, hM1, rM3, hM3, rM5, and hM5 cells were grown in Ham's F-12 medium containing 10% heat-inactivated fetal bovine serum (FBS), 20 mM HEPES, and 50 μg/mL G418 sulfate. rM2-Gqi5, hM2Gqi5, and hM4Gqi5 cells were grown in the same medium also containing 500 μg/mL Hygromycin B. Stable rM4Gqi5 cells were grown in DMEM containing 10% heat-inactivated FBS, 20 mM HEPES, 400 μg/mL G418 sulfate, and 500 μg/mL Hygromycin B.
For high throughput measurement of agonist-evoked increases in intracellular calcium, CHO-K1 cells stably expressing muscarinic receptors were plated in growth medium lacking G418 and hygromycin at 15,000 cells/20 μL/well in Greiner 384-well black-walled, tissue culture (TC)-treated, clear-bottom plates (VWR). Cells were incubated overnight at 37° C. and 5% CO2. The next day, cells were washed using an ELX 405 (BioTek) with four washes (80 μL) of assay buffer then […], 20 μL of Fluo-4/acetoxymethyl ester (Invitrogen, Carlsbad, Calif.) prepared as a 2.3 mM stock in DMSO and mixed in a 1:1 ratio with 10% (w/v) Pluronic F-127 and diluted in assay buffer was added to the wells and the cell plates were incubated for […] at 37° C. and 5% CO2. Dye was removed by washing with the ELX 405 (four 80 μL washes of assay buffer) then aspirated to 20 μL. Compound master plates were formatted in an 11 point CRC format (1:3 dilutions) in 100% DMSO with a starting concentration of 10 mM using the BRAVO liquid handler (Agilent). Test compound CRCs were then transferred to daughter plates ([…]) using the Echo acoustic plate reformatter (Labcyte, Sunnyvale, Calif.) and then diluted into assay buffer (40 μL) to a 2× stock using a Thermo Fisher Combi (Thermo Fisher Scientific, Waltham, Mass.).
Calcium flux was measured using the Functional Drug Screening System (FDSS) 6000 (Hamamatsu Corporation, Tokyo, Japan) as an increase in the fluorescent static ratio. Compounds were applied to cells (20 μL, 2×) using the automated system of the FDSS 6000 at 4 s into the 300 s protocol and the data were collected at 1 Hz. At 144 s into the 300 s protocol, 10 μL of an EC20 concentration of the muscarinic receptor agonist acetylcholine was added (5×), followed by the addition of 12 μL an EC80 concentration of acetylcholine at the 230 s time point (5×). Agonist activity was analyzed as a concentration-dependent increase in calcium mobilization upon compound addition. Positive allosteric modulator activity was analyzed as a concentration-dependent increase in the EC20 acetylcholine response. Antagonist activity was analyzed as a concentration-dependent decrease in the EC80 acetylcholine response. Concentration-response curves were generated using a four-parameter logistical equation in XLFit curve fitting software (IDBS, Bridgewater, N.J.) for Excel (Microsoft, Redmond, Wash.) or Prism (GraphPad Software, Inc., San Diego, Calif.).
The calcium mobilization assay was also used to determine “efficacy”. […]
Background: Calcium flux is commonly read through the fluorescence of an indicator in the cells.

Each structure is given as a SMILES string.

As to `Cn1cc(-c2ccc(CNc3ccccc3S(C)(=O)=O)c(F)c2)cn1` [Compound B15], the Emax (in general, the maximal effect, on the per cent scale that the assay sets) (CHO-K1, maximal response of curve fit or response at 30 μM test compound, as % of response to an about EC80 ACh concentration, read-out: Emax (% ACh maximum at 30 μM)) turned out to be 34%. Besides, the EC50 (commonly the concentration needed to bring the measured effect to its halfway point) (positive allosteric modulation of EC20 acetylcholine response, >10,000 estimated where no plateau in the curve) was over 10 µM.

The values above are taken from patent US9012445B2, “Substituted 4-(1H-pyrazol-4-yl)benzyl analogues as positive allosteric modulators of mAChR M1 receptors” (Vanderbilt University, priority 2012, dated 2015).
